Reference: ChEMBL document CHEMBL1201862, “PubChem BioAssay data set” (2004)
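96-well plates; 48 h exposure; 5 concentrations. Endpoints by linear interpolation between flanking doses. Not reached: highest tested concentration assigned. GI50 marks 50% less growth.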 Active and inactive are the calls of the source. Rule as the data show it: active = GI50 up to about 1.1 µM and inactive = higher.

Legend:
Assay in all cases: inhibition of tumour cell growth, NCI panel, 48 h
UACC-62 = system: UACC-62
IGROV-1 = system: IGROV-1
SF-268 = system: SF-268
UO-31 = system: UO-31
MDA-MB-231 = system: MDA-MB-231
CCRF-CEM = system: CCRF-CEM
HOP-62 = system: HOP-62
HCT-116 = system: HCT-116
K562 = system: K562
SW-620 = system: SW-620
SN12C = system: SN12C
TK-10 = system: TK-10
NCI-H23 = system: NCI-H23
HCT-15 = system: HCT-15
PC-3 = system: PC-3
NCI-H460 = system: NCI-H460
SF-295 = system: SF-295
EKVX = system: EKVX
HCC 2998 = system: HCC 2998
MDA-MB-435 = system: MDA-MB-435

Row | Compound | GI50 (UACC-62) | GI50 (IGROV-1) | GI50 (SF-268) | GI50 (UO-31) | GI50 (MDA-MB-231) | GI50 (CCRF-CEM) | GI50 (HOP-62) | GI50 (HCT-116) | GI50 (K562) | GI50 (SW-620) | GI50 (SN12C) | GI50 (TK-10) | GI50 (NCI-H23) | GI50 (HCT-15) [µM] | GI50 (PC-3) | GI50 (NCI-H460) | GI50 (SF-295) | GI50 (EKVX) | GI50 (HCC 2998) | GI50 (MDA-MB-435)
1 | NS(=O)(=O)c1cccc(NC(=S)NC(=O)Nc2ccc(Cl)c(Cl)c2)c1 | 13.3 µM (inactive) | 20 µM (inactive) | 22.5 µM (inactive) | 16.6 µM (inactive) | 17.7 µM (inactive) | 30.2 µM (inactive) | 15.5 µM (inactive) | 17.1 µM (inactive) | 16.2 µM (inactive) | 19 µM (inactive) | 17.7 µM (inactive) | 32.5 µM (inactive) | 15.8 µM (inactive) | 17.3 | 22.4 µM (inactive) | 16.7 µM (inactive) | 22.6 µM (inactive) |  |  | 
2 | COc1ccc(C=O)cc1O[Si](C)(C)C(C)(C)C | > 100 µM (inactive) | > 100 µM (inactive) | > 100 µM (inactive) | > 100 µM (inactive) |  | > 100 µM (inactive) | > 100 µM (inactive) | > 100 µM (inactive) | > 100 µM (inactive) | > 100 µM (inactive) | > 100 µM (inactive) | > 100 µM (inactive) | > 100 µM (inactive) | > 100 |  | > 100 µM (inactive) | > 100 µM (inactive) | > 100 µM (inactive) | > 100 µM (inactive) | 
3 | O=C(/C=C/c1ccccc1)c1ccc(Cl)cc1Cl | 15.9 µM (inactive) | 18.5 µM (inactive) | 28.4 µM (inactive) | > 100 µM (inactive) |  | 7.24 µM (inactive) | 94.4 µM (inactive) | 11.2 µM (inactive) | 10 µM (inactive) | 4.8 µM (inactive) | 23.1 µM (inactive) | 31.8 µM (inactive) | 27.5 µM (inactive) | 13.1 |  | 17.6 µM (inactive) | 19.9 µM (inactive) | 28.4 µM (inactive) | 23.3 µM (inactive) | 
4 | CC(=O)/C=C/c1ccc(C)cc1 | > 100 µM (inactive) | > 100 µM (inactive) | > 100 µM (inactive) | > 100 µM (inactive) |  | > 100 µM (inactive) | > 100 µM (inactive) | > 100 µM (inactive) | > 100 µM (inactive) | > 100 µM (inactive) | > 100 µM (inactive) | > 100 µM (inactive) | > 100 µM (inactive) | > 100 |  | > 100 µM (inactive) | > 100 µM (inactive) | > 100 µM (inactive) | > 100 µM (inactive) | 
5 | C=C(C)C1CC[C@]2(C(=O)O)CCC3(C)[C@H](CCC4[C@@]5(C)CC[C@H](OC6OC(CO)C(O)C6OC6OC(C)C(O)C(O)C6O)[C@@](C)(CO)C5CC[C@]43C)C12 (stereo partly specified) | > 100 µM (inactive) | > 100 µM (inactive) | > 100 µM (inactive) | 20.1 µM (inactive) |  | > 100 µM (inactive) | > 100 µM (inactive) | > 100 µM (inactive) | > 100 µM (inactive) | > 100 µM (inactive) | > 100 µM (inactive) | > 100 µM (inactive) | > 100 µM (inactive) | > 100 |  | > 100 µM (inactive) | > 100 µM (inactive) | > 100 µM (inactive) | > 100 µM (inactive) | 
6 | O=S(=O)(O)c1ccc(-c2c3nc(c(-c4ccc(S(=O)(=O)O)cc4)c4ccc([nH]4)c(-c4ccc(S(=O)(=O)O)cc4)c4nc(c(-c5ccc(S(=O)(=O)O)cc5)c5ccc2[nH]5)C=C4)C=C3)cc1 | > 100 µM (inactive) | > 100 µM (inactive) | 92.5 µM (inactive) | 19.5 µM (inactive) |  | > 100 µM (inactive) | > 100 µM (inactive) | > 100 µM (inactive) | > 100 µM (inactive) | > 100 µM (inactive) | > 100 µM (inactive) | > 100 µM (inactive) | 58.1 µM (inactive) | > 100 |  | > 100 µM (inactive) | 42.7 µM (inactive) | > 100 µM (inactive) | > 100 µM (inactive) | 
7 | C=C(C)C12CC(COC(=O)c3ccccc3)C34OC5(OC1C3C1OC1(CO)C(O)C1(O)C(OC(=O)c3ccccc3)C(C)C(C(C)CCCCCCC5O)C14)O2 (stereo unspecified) | > 100 µM (inactive) | > 72.8 µM (inactive) | 52.1 µM (inactive) | 70.1 µM (inactive) | > 78.2 µM (inactive) | 26.4 µM (inactive) |  | 52 µM (inactive) | < 0.01 µM (active) |  | 37.8 µM (inactive) | < 0.01 µM (active) | 56.2 µM (inactive) | 54 | 38.8 µM (inactive) | 33.6 µM (inactive) | 31.2 µM (inactive) | 58.6 µM (inactive) | < 0.01 µM (active) | 
8 | CCCCC1CC(c2cccc([N+](=O)[O-])c2)=NO1 (stereo unspecified) | 54.8 µM (inactive) | > 100 µM (inactive) | > 100 µM (inactive) | 50.9 µM (inactive) |  | 48.5 µM (inactive) | > 100 µM (inactive) | > 100 µM (inactive) | 60.8 µM (inactive) | > 100 µM (inactive) | > 100 µM (inactive) | > 100 µM (inactive) | 80.9 µM (inactive) | > 100 |  | 75.5 µM (inactive) | 97.7 µM (inactive) | 58.2 µM (inactive) | 58.5 µM (inactive) | 
9 | CN(C(=O)C1CC1)C1C2CN3CCC(O2)C13 (stereo unspecified) | > 100 µM (inactive) | > 100 µM (inactive) | > 100 µM (inactive) | > 100 µM (inactive) |  | > 100 µM (inactive) | > 100 µM (inactive) | > 100 µM (inactive) | > 100 µM (inactive) | > 100 µM (inactive) | > 100 µM (inactive) | > 100 µM (inactive) | > 100 µM (inactive) | > 100 |  | > 100 µM (inactive) | > 100 µM (inactive) | > 100 µM (inactive) | > 100 µM (inactive) | 
10 | CCOC(=O)c1c(C(F)(F)F)oc2c1ccc1nc3nonc3nc12 | 15 µM (inactive) | 23.2 µM (inactive) | 17.9 µM (inactive) | 19.2 µM (inactive) |  | 1.91 µM (inactive) | 13.8 µM (inactive) | 17 µM (inactive) | 2.67 µM (inactive) | 16.8 µM (inactive) | 17.4 µM (inactive) | 19.4 µM (inactive) | 13.4 µM (inactive) | 17.3 |  | 23.3 µM (inactive) | 27 µM (inactive) | 17.9 µM (inactive) | 24.9 µM (inactive) | 
11 | Cc1ccc(C2(c3ccc(F)cc3)OC(=O)c3ccccc32)c(O)c1 (stereo unspecified) | 10.5 µM (inactive) | 14.4 µM (inactive) | 19.5 µM (inactive) | 5.5 µM (inactive) | 17.9 µM (inactive) | 18.7 µM (inactive) | 14.6 µM (inactive) | 12.9 µM (inactive) | 14.2 µM (inactive) | 13.6 µM (inactive) | 14.7 µM (inactive) | 15.1 µM (inactive) | 19.9 µM (inactive) | 15.2 |  | 17 µM (inactive) | 11.5 µM (inactive) | 16 µM (inactive) | 22.4 µM (inactive) | 12.4 µM (inactive)
12 | CCc1cccc(C)c1NC(=O)CC1Sc2ccccc2NC1=O (stereo unspecified) | 46.9 µM (inactive) | 88.7 µM (inactive) | 50.7 µM (inactive) | 30.1 µM (inactive) |  | 25.2 µM (inactive) | 15.1 µM (inactive) | 34.3 µM (inactive) | 23.8 µM (inactive) | 37.8 µM (inactive) | > 100 µM (inactive) | 93.1 µM (inactive) | 38 µM (inactive) | 39.3 |  | 34.4 µM (inactive) | 95.7 µM (inactive) | 91.8 µM (inactive) | 22.4 µM (inactive) | 
